# According to US20220313774A1, “INTRANASAL ADMINISTRATION OF MEROTOCIN FOR IMPROVING LACTATION” (FERRING B.V., priority 2019, published 2022):
# Where two headings read alike, the source gives them in different places. *1 amine or outer side, *2 acyl side, *3 side chain or, on linkers, in order; H or OH if unused. Where a SMILES comes first, the peptide text is derived from it. Bridges are numbered along the chain shown (N, C = ends). [ ]: non-standard residue; d: D form. N(4-F-Bzl)Gly = O=C(O)CNCc1ccc(F)cc1; X1 = O=C(CCC[*:2])[*:1]
# Assays:
# healthy women [1] = conditions: in vivo
# early postpartum women = conditions: in vivo
# Protocol: Healthy women received 5 or 20 μg merotocin i.v. shortly after delivery (Part A) or 20 μg merotocin i.v. when lactation was established (Part B). Milk was expressed by pumping at 15 minutes, 3 hours, 6 hours, 9 hours, 12 hours, 18 hours and 18-24 hours after start of infusion and analysed for merotocin and metabolites.
# [2] = in vivo
# healthy women [3] = system: healthy women;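 as to dry mouth: subjects reporting: adverse events in healthy women given intranasal doses every 3 h over 45 h (16 doses per panel), each panel with 6 active and 2 placebo subjects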;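 as to headache: subjects reporting: adverse events in healthy women given intranasal doses every 3 h over 45 h (16 doses per panel), each panel with 6 active and 2 placebo subjects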;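 as to intensity of all TEAEs: adverse events in healthy women given intranasal doses every 3 h over 45 h (16 doses per panel), each panel with 6 active and 2 placebo subjects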;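 as to withdrawal due to nausea: adverse events in healthy women given intranasal doses every 3 h over 45 h (16 doses per panel), each panel with 6 active and 2 placebo subjects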
# Protocol: Part 2. Ascending multiple i.n. doses. There were 3 dose panels with 8 healthy women in each dose panel (6 active, 2 placebo). The dosing schedule was every 3 hours for 45 hours, i.e. 16 doses in all. The doses investigated were 50 μg, 200 μg, and 400 μg.
# Three dose levels were investigated: the first dose was 50 μg, the second dose was 200 μg (intermediate between the first dose and the maximal tolerated dose in Part 1), and the highest dose was 400 μg (the maximal dose in Part 1).
# clinical = conditions: female, human, in vivo
# Protocol: The first clinical trial in human, Trial 000015, was a double-blind, placebo-controlled, single dose, within dose panel randomised, sequential dose escalating study. The trial was divided into three parts:
# Part 1. Ascending single i.n. doses. There were 7 dose panels with 8 healthy women in each dose panel (6 active, 2 placebo). The doses investigated were 5 μg, 15 μg, 50 μg, 100 μg, 200 μg, 300 μg, and 400 μg.
# Seven dose levels were investigated: 5, 15, 50, 100, 200, 300, and 400 μg. Each of the doses were administered as a nasal spray based on one or multiple puffs per nostril.
# FE 202767 was provided as an isotonic citrate/phosphate buffered solution of pH 5.5 in water in vials containing an extractable volume of 0.9 mL (Table 2). The concentration of FE 202767 was 0.7 mg/mL, to be used appropriately diluted with buffer or, for Part 3, NaCl for injection. The buffer used for FE 202767 was used as placebo in this study.
# [4] = Trial 000015 Part 2: pharmacokinetics after multiple intranasal administrations; assay type: in vivo, human; conditions: for Cmax / Tmax / AUC(0-t): female, human, plasma, inhaled or intranasal, multiple i.n. doses every 3 hours; for Tmax: read-out: tmax Mean (SD)
# Text: The trial was divided into three parts:
# Part 2. Ascending multiple i.n. doses.
# [5] = multiple doses 50 μg i.n., N = 6
# [6] = multiple doses 200 μg i.n., N = 6
# [7] = multiple doses 400 μg i.n., N = 6
# [8] = 16 i.n. administrations over 48 hours
structure (smiles),measurement,setting,value
"CC[C@H](C)[C@@H]1NC(=O)[C@H](Cc2ccc(O)cc2)NC(=O)CCCSC[C@@H](C(=O)N(CC(=O)N[C@@H](CC(C)C)C(=O)NCC(N)=O)Cc2ccc(F)cc2)NC(=O)[C@H](CC(N)=O)NC(=O)[C@H](CCC(N)=O)NC1=O [merotocin, Glycinamide, N-(4-mercapto-1-oxobutyl)-L-tyrosyl-L-isoleucyl-Lglutaminyl-L-asparaginyl-L-cysteinyl-N-[(4-fluorophenyl)methyl]glycyl-L-leucyl-, cyclic (1→5)-thioether] (YIQNC[N(4-F-Bzl)Gly]LG-NH2; linker N-5 via X1)",ECG and safety laboratory parameters,healthy women [1],not affected to any measurable extent
same,blood pressure shifts,healthy women [1],Only occasional events of blood pressure shifts
same,pulse rate,healthy women [1],appeared to increase the pulse rate
same,urinary retention,healthy women [1],no signs of urinary retention
same,degradation by chymotrypsin,chymotrypsin,degradable by chymotrypsin
same,"Any AE: number of AEs, E",early postpartum women,16
same,"Any AE: subjects with AE, n (%)",early postpartum women,8 (44)
same,"Back pain: number of AEs, E",early postpartum women,1
same,"Back pain: subjects with AE, n (%)",early postpartum women,1 (6)
same,"Breast engorgement: number of AEs, E",early postpartum women,3
same,"Breast engorgement: subjects with AE, n (%)",early postpartum women,3 (17)
same,"Headache: number of AEs, E",early postpartum women,3
same,"Headache: subjects with AE, n (%)",early postpartum women,2 (11)
same,"Lactation puerperal increased: number of AEs, E",early postpartum women,1
same,"Lactation puerperal increased: subjects with AE, n (%)",early postpartum women,1 (6)
same,"Muscle spasms: number of AEs, E",early postpartum women,1
same,"Muscle spasms: subjects with AE, n (%)",early postpartum women,1 (6)
same,"Uterine spasm: number of AEs, E",early postpartum women,7
same,"Uterine spasm: subjects with AE, n (%)",early postpartum women,6 (33)
same,safety (key results),early postpartum women,No safety
same,severe or serious AE,early postpartum women; iv,No severe or serious AE occurred
same,metabolites of merotocin in plasma or urine samples,[2],No metabolites of merotocin could be detected
same,withdrawal due to nausea,"healthy women [3]; 400 μg group, multiple doses",One subject was withdrawn
same,dry mouth: subjects reporting,"healthy women [3]; 200 and 400 μg groups, multiple doses",5 subjects
same,intensity of all TEAEs,healthy women [3]; after multiple dose administrations,mild
same,headache: subjects reporting,"healthy women [3]; all treatment groups, multiple doses",4 subjects
same,"Any AE: number of AEs, E",healthy women [3]; [5],3
same,"Any AE: subjects with AE, n (%)",healthy women [3]; [5],3 (50%)
same,"Breast tenderness: number of AEs, E",healthy women [3]; [5],1
same,"Breast tenderness: subjects with AE, n (%)",healthy women [3]; [5],1 (17%)
same,"Headache: number of AEs, E",healthy women [3]; [5],2
same,"Headache: subjects with AE, n (%)",healthy women [3]; [5],2 (33%)
same,"Any AE: number of AEs, E",healthy women [3]; [6],5
same,"Any AE: subjects with AE, n (%)",healthy women [3]; [6],4 (67%)
same,"Dry mouth: number of AEs, E",healthy women [3]; [6],3
same,"Dry mouth: subjects with AE, n (%)",healthy women [3]; [6],3 (50%)
same,"Flushing: number of AEs, E",healthy women [3]; [6],1
same,"Flushing: subjects with AE, n (%)",healthy women [3]; [6],1 (17%)
same,"Headache: number of AEs, E",healthy women [3]; [6],1
same,"Headache: subjects with AE, n (%)",healthy women [3]; [6],1 (17%)
same,"Any AE: number of AEs, E",healthy women [3]; [7],6
same,"Any AE: subjects with AE, n (%)",healthy women [3]; [7],3 (50%)
same,"Dry mouth: number of AEs, E",healthy women [3]; [7],2
same,"Dry mouth: subjects with AE, n (%)",healthy women [3]; [7],2 (33%)
same,"Flushing: number of AEs, E",healthy women [3]; [7],1
same,"Flushing: subjects with AE, n (%)",healthy women [3]; [7],1 (17%)
same,"Headache: number of AEs, E",healthy women [3]; [7],2
same,"Headache: subjects with AE, n (%)",healthy women [3]; [7],1 (17%)
same,"Nausea: number of AEs, E",healthy women [3]; [7],1
same,"Nausea: subjects with AE, n (%)",healthy women [3]; [7],1 (17%)
same,number of TEAEs reported,"healthy women [3]; multiple doses, 24 subjects",14
same,half-life,"clinical; inhaled or intranasal, 200 ug, t1/2 Median",23.4 min
same,half-life,"clinical; inhaled or intranasal, 400 ug, t1/2 Harmonic mean",33.6 min
same,half-life,"clinical; inhaled or intranasal, 400 ug, t1/2 Median",33 min
same,half-life,clinical; t1/2,25 to 35 min
same,accumulation,[4]; [8],no indications of relevant accumulation
same,pre-dose concentrations,[4]; [8],falling constantly below the LLOQ
same,Cmax,"[4]; 50 ug, 50 μg, Dose No. 1, read-out: Cmax Geom. mean (% CV)",0.0275 ng/mL
same,Cmax,"[4]; 50 ug, 50 μg, Dose No. 1, read-out: Cmax Median",0.0307 ng/mL
same,Tmax,"[4]; 50 ug, 50 μg, Dose No. 1",13.8 min
same,Cmax,"[4]; 50 ug, 50 μg, Dose No. 2, read-out: Cmax Median",0.0302 ng/mL
same,Cmax,"[4]; 50 ug, 50 μg, Dose No. 16, read-out: Cmax Median",0.0266 ng/mL
same,Tmax,"[4]; 50 ug, 50 μg, Dose No. 16",20.4 min
same,AUC(0-t),"[4]; 200 ug, 200 μg, Dose No. 1, read-out: AUCt Geom. mean (% CV)",0.0804 ng·h/mL
same,AUC(0-t),"[4]; 200 ug, 200 μg, Dose No. 1, read-out: AUCt Median",0.0876 ng·h/mL
same,Cmax,"[4]; 200 ug, 200 μg, Dose No. 1, read-out: Cmax Geom. mean (% CV)",0.124 ng/mL
same,Cmax,"[4]; 200 ug, 200 μg, Dose No. 1, read-out: Cmax Median",0.125 ng/mL
same,Tmax,"[4]; 200 ug, 200 μg, Dose No. 1",10.8 min
same,AUC(0-t),"[4]; 200 ug, 200 μg, Dose No. 2, read-out: AUCt Geom. mean (% CV)",0.0752 ng·h/mL
same,AUC(0-t),"[4]; 200 ug, 200 μg, Dose No. 2, read-out: AUCt Median",0.0706 ng·h/mL
same,Cmax,"[4]; 200 ug, 200 μg, Dose No. 2, read-out: Cmax Geom. mean (% CV)",0.115 ng/mL
same,Cmax,"[4]; 200 ug, 200 μg, Dose No. 2, read-out: Cmax Median",0.118 ng/mL
